Measurements as given in patent publication US20110158980A1, “METHODS TO TREAT AND SCREEN FOR AGENTS TO TREAT OBESITY” (TRUSTEES OF TUFTS COLLEGE, priority 2008, published 2011).

Test system: 3T3-L1 adipocytes
Assay: Metabolic flux analysis (stoichiometric model) of adipocyte intermediary metabolism
Format: cell-based
Protocol: 3T3-L1 preadipocytes were plated onto 24-well plates and expanded in preadipocyte growth medium consisting of DMEM supplemented with calf serum (10% v/v), penicillin and streptomycin. Medium was replenished every other day. Two days post-confluence, the cells were induced to differentiate using an adipogenic cocktail (1 μg/ml insulin, 0.5 mM isobutylmethylxanthine, and 1 μM dexamethasone) added to a basal medium (DMEM with 10% fetal bovine serum and penicillin/streptomycin). After 48 hrs, the first medium was replaced with a second induction medium consisting of the basal adipocyte medium supplemented with only insulin. […] This basal medium was replenished every other day during the remainder of the culture experiments.
A stoichiometric model of adipocyte central carbon metabolism was constructed as described previously (Si Y, Yoon J, Lee K. American journal of physiology 2007; 292:E1637-46). The model consisted of the major pathways of central carbon metabolism (Table 1). Intracellular fluxes were estimated by solving a constrained non-linear optimization problem with stoichiometric and thermodynamic constraints (Nolan R P, Fenley A P, Lee K. Metab Eng 2006; 8:30-45).

O=C(O)Cc1ccccc1 [phenylacetate] was tested. Which Increase of lipolysis (5 mM PA) did it give?
The Increase of lipolysis was 1.2 fold.

What about the “Decrease of citrate transport out of the mitochondria” value (5 mM phenylacetate) of the same compound?
The value was 40%.

What about the “Decrease of pyruvate carboxylase flux” value (5 mM phenylacetate) of the same compound?
Its value is 23%.

And the Increase of lipolysis (10 mM PA)?
Its Increase of lipolysis is 1.4 fold.

What about the “Calculated CO2 output lower” value (10 mM phenylacetate) of the same compound?
Its value is 23%.

And the “Decrease of PDC flux” value (10 mM phenylacetate)?
The value was 27%.

And the “Decrease of citrate transport out of the mitochondria” value (10 mM phenylacetate)?
Its value is 46%.

What about the “Decrease of pyruvate carboxylase flux” value (10 mM phenylacetate) of the same compound?
The value was 33%.

And the “Flux RXN 1 Glycolysis: Glucose + ATP = Glucose 6-P + ADP” value (PA 5 mM, day 12 post-induction)?
Its value is 367.0 ± 17.6 mmol/g-DNA/2 days.

And the “Flux RXN 2 Glycolysis: Glucose 6-P = Fructose 6-P” value (PA 5 mM, day 12 post-induction)?
The value was 359.9 ± 23.3 mmol/g-DNA/2 days.

What about the “Flux RXN 3 Glycolysis: Fructose 6-P + ATP = Glyceraldehyde 3-P + Glycerone-P + ADP” value (PA 5 mM, day 12 post-induction) of the same compound?
The value was 364.7 ± 19.3 mmol/g-DNA/2 days.

What about the “Flux RXN 4 Glycolysis: Glycerone-P = Glyceraldehyde 3-P” value (PA 5 mM, day 12 post-induction) of the same compound?
Its value is 342.7 ± 18.4 mmol/g-DNA/2 days.

And the “Flux RXN 5 Glycolysis: Glyceraldehyde 3-P + NAD+ + ADP + Pi = P-Enolpyruvate + ATP + H2O” value (PA 5 mM, day 12 post-induction)?
Its value is 709.8 ± 35.8 mmol/g-DNA/2 days.

And the “Flux RXN 6 Glycolysis: P-Enolpyruvate + ADP + H+ = Pyruvate + ATP” value (PA 5 mM, day 12 post-induction)?
The value was 784.6 ± 35.5 mmol/g-DNA/2 days.

What about the “Flux RXN 7 Glycolysis: Pyruvate + NADH + H+ = Lactate + NAD+” value (PA 5 mM, day 12 post-induction) of the same compound?
Its value is 410.4 ± 19.1 mmol/g-DNA/2 days.

And the “Flux RXN 8 Pentose phosphate pathway: Glucose 6-P + 2 NADP+ + H2O = Ribulose 5-P + CO2 + 2 NADPH + 2 H+” value (PA 5 mM, day 12 post-induction)?
Its value is 7.1 ± 7.8 mmol/g-DNA/2 days.

What about the “Flux RXN 9 Pentose phosphate pathway: 3 Ribulose 5-P = 2 Fructose 6-P + Glyceraldehyde 3-P” value (PA 5 mM, day 12 post-induction) of the same compound?
Its value is 2.4 ± 2.6 mmol/g-DNA/2 days.

What about the “Flux RXN 10 TCA cycle (mitochondria) (PDC)” value (PA 5 mM, day 12 post-induction) of the same compound?
The value was 312.7 ± 48.2 mmol/g-DNA/2 days.

What about the “Flux RXN 11 TCA cycle (mitochondria) (PC)” value (PA 5 mM, day 12 post-induction) of the same compound?
The value was 141.4 ± 13.2 mmol/g-DNA/2 days.

What about the “Flux RXN 12 TCA cycle (mitochondria)” value (PA 5 mM, day 12 post-induction) of the same compound?
The value was 200.9 ± 54.1 mmol/g-DNA/2 days.

And the “Flux RXN 13 TCA cycle (mitochondria)” value (PA 5 mM, day 12 post-induction)?
Its value is 237.8 ± 52.0 mmol/g-DNA/2 days.

And the “Flux RXN 14 TCA cycle (mitochondria)” value (PA 5 mM, day 12 post-induction)?
Its value is 251.0 ± 52.6 mmol/g-DNA/2 days.

And the “Flux RXN 15 TCA cycle (mitochondria)” value (PA 5 mM, day 12 post-induction)?
Its value is 251.2 ± 52.7 mmol/g-DNA/2 days.

And the “Flux RXN 16 TCA cycle (mitochondria)” value (PA 5 mM, day 12 post-induction)?
Its value is 171.3 ± 45.2 mmol/g-DNA/2 days.

And the “Flux RXN 17 TCA cycle: Citrate + CoA + ATP = Acetyl-CoA + Oxaloacetate + ADP + Pi” value (PA 5 mM, day 12 post-induction)?
The value was 74.9 ± 9.0 mmol/g-DNA/2 days.

And the “Flux RXN 18 TCA cycle: Oxaloacetate + NADH + H+ = Malate + NAD+” value (PA 5 mM, day 12 post-induction)?
Its value is 0.0 ± 0.0 mmol/g-DNA/2 days.

And the “Flux RXN 19 TCA cycle: Malate + NADP+ = Pyruvate + CO2 + NADPH” value (PA 5 mM, day 12 post-induction)?
The value was 79.9 ± 9.7 mmol/g-DNA/2 days.

What about the “Flux RXN 20 TCA cycle: Citrate + NADP+ = 2-Oxoglutarate + CO2 + NADPH + H+” value (PA 5 mM, day 12 post-induction) of the same compound?
Its value is 36.9 ± 7.3 mmol/g-DNA/2 days.

What about the “Flux RXN 21 TCA cycle: Oxaloacetate + ATP = P-Enolpyruvate + CO2 + ADP” value (PA 5 mM, day 12 post-induction) of the same compound?
Its value is 74.8 ± 9.0 mmol/g-DNA/2 days.

What about the “Flux RXN 22 Oxidative phosphorylation (NADH + 0.5 O2)” value (PA 5 mM, day 12 post-induction) of the same compound?
The value was 527.6 ± 214.3 mmol/g-DNA/2 days.

And the “Flux RXN 23 Oxidative phosphorylation (FADH2 + 0.5 O2)” value (PA 5 mM, day 12 post-induction)?
Its value is 272.8 ± 53.3 mmol/g-DNA/2 days.

And the “Flux RXN 24 Palmitate biosynthesis” value (PA 5 mM, day 12 post-induction)?
The value was 9.4 ± 1.1 mmol/g-DNA/2 days.

What about the “Flux RXN 25 Tripalmitoylglycerol biosynthesis: Glycerone-P + 3 Palmitate to Tripalmitoylglycerol” value (PA 5 mM, day 12 post-induction) of the same compound?
Its value is 22.0 ± 1.3 mmol/g-DNA/2 days.

And the “Flux RXN 26 Tripalmitoylglycerol + 3 H2O = Glycerol + 3 Palmitate” value (PA 5 mM, day 12 post-induction)?
Its value is 19.2 ± 1.4 mmol/g-DNA/2 days.

And the “Flux RXN 27 Tripalmitoylglycerol accumulation” value (PA 5 mM, day 12 post-induction)?
Its value is 2.8 ± 0.4 mmol/g-DNA/2 days.

And the “Flux RXN 28 Metabolism of ketone bodies” value (PA 5 mM, day 12 post-induction)?
The value was 8.4 ± 0.3 mmol/g-DNA/2 days.

And the “Flux RXN 29 Metabolism of ketone bodies” value (PA 5 mM, day 12 post-induction)?
Its value is 0.0 ± 0.0 mmol/g-DNA/2 days.

And the “Flux RXN 30 Metabolism of ketone bodies (to 3-Hydroxybutyrate)” value (PA 5 mM, day 12 post-induction)?
Its value is 17.0 ± 0.6 mmol/g-DNA/2 days.

What about the “Flux RXN 31 Amino acid metabolism: Pyruvate + NH4+ + NADPH = Alanine” value (PA 5 mM, day 12 post-induction) of the same compound?
Its value is 0.0 ± 0.0 mmol/g-DNA/2 days.

And the “Flux RXN 32 Amino acid metabolism: Aspartate + NH4+ = Asparagine” value (PA 5 mM, day 12 post-induction)?
Its value is 2.3 ± 0.1 mmol/g-DNA/2 days.

And the “Flux RXN 33 Amino acid metabolism: Aspartate = Oxaloacetate + NH4+ + NADH” value (PA 5 mM, day 12 post-induction)?
The value was 0.0 ± 0.0 mmol/g-DNA/2 days.

And the “Flux RXN 34 Amino acid metabolism: Cysteine = Pyruvate + NH4+ + NADH” value (PA 5 mM, day 12 post-induction)?
Its value is 0.0 ± 0.0 mmol/g-DNA/2 days.

And the “Flux RXN 35 Amino acid metabolism: Glutamate = 2-Oxoglutarate + NH4+ + NADH” value (PA 5 mM, day 12 post-induction)?
Its value is 0.0 ± 0.0 mmol/g-DNA/2 days.

What about the “Flux RXN 36 Amino acid metabolism: Glutamate + NH4+ + ATP = Glutamine” value (PA 5 mM, day 12 post-induction) of the same compound?
Its value is 5.3 ± 0.4 mmol/g-DNA/2 days.

What about the “Flux RXN 37 Amino acid metabolism: Serine + THF = Glycine” value (PA 5 mM, day 12 post-induction) of the same compound?
Its value is 5.8 ± 0.2 mmol/g-DNA/2 days.

What about the “Flux RXN 38 Amino acid metabolism: Histidine + THF = Glutamate + NH4+” value (PA 5 mM, day 12 post-induction) of the same compound?
The value was 2.7 ± 0.2 mmol/g-DNA/2 days.

What about the “Flux RXN 39 Amino acid metabolism: Isoleucine + 2 CoA” value (PA 5 mM, day 12 post-induction) of the same compound?
Its value is 8.1 ± 0.3 mmol/g-DNA/2 days.

What about the “Flux RXN 40 Amino acid metabolism: Leucine + CoA + CO2 + ATP” value (PA 5 mM, day 12 post-induction) of the same compound?
The value was 8.6 ± 0.3 mmol/g-DNA/2 days.

What about the “Flux RXN 41 Amino acid metabolism: Lysine = 2-Oxoadipate + 2 NH4+ + 3 NADH” value (PA 5 mM, day 12 post-induction) of the same compound?
Its value is 0.0 ± 0.0 mmol/g-DNA/2 days.

And the “Flux RXN 42 Amino acid metabolism: 2-Oxoadipate + CoA” value (PA 5 mM, day 12 post-induction)?
The value was 0.0 ± 0.0 mmol/g-DNA/2 days.

And the “Flux RXN 43 Amino acid metabolism: Methionine + Serine + ATP + CoA + THF” value (PA 5 mM, day 12 post-induction)?
The value was 0.0 ± 0.0 mmol/g-DNA/2 days.

What about the “Flux RXN 44 Amino acid metabolism: Phenylalanine + O2 + NADH = Tyrosine” value (PA 5 mM, day 12 post-induction) of the same compound?
Its value is 0.0 ± 0.0 mmol/g-DNA/2 days.

And the “Flux RXN 45 Amino acid metabolism: Glutamate + ATP + 2 NADPH = Proline” value (PA 5 mM, day 12 post-induction)?
The value was 0.0 ± 0.0 mmol/g-DNA/2 days.

And the “Flux RXN 46 Amino acid metabolism: Serine = Pyruvate + NH4+” value (PA 5 mM, day 12 post-induction)?
The value was 0.0 ± 0.0 mmol/g-DNA/2 days.

What about the “Flux RXN 47 Amino acid metabolism: Threonine + CoA to Glycine” value (PA 5 mM, day 12 post-induction) of the same compound?
Its value is 0.1 ± 0.1 mmol/g-DNA/2 days.

What about the “Flux RXN 48 Amino acid metabolism: Tryptophan + 3 O2 + NADPH = 2-Oxoadipate + Alanine + CO2 + NH4+” value (PA 5 mM, day 12 post-induction) of the same compound?
The value was 0.0 ± 0.0 mmol/g-DNA/2 days.

And the “Flux RXN 49 Amino acid metabolism: Tyrosine + 2 O2” value (PA 5 mM, day 12 post-induction)?
Its value is 0.2 ± 0.1 mmol/g-DNA/2 days.

And the “Flux RXN 50 Amino acid metabolism: Valine + CoA” value (PA 5 mM, day 12 post-induction)?
The value was 5.1 ± 0.4 mmol/g-DNA/2 days.

What about the “Flux RXN 51 Plasma exchange: Palmitate” value (PA 5 mM, day 12 post-induction) of the same compound?
The value was 1.0 ± 0.1 mmol/g-DNA/2 days.

And the “Flux RXN 52 Plasma exchange: Acetoacetate” value (PA 5 mM, day 12 post-induction)?
The value was 0.2 ± 0.2 mmol/g-DNA/2 days.

What about the “Flux RXN 53 Plasma exchange: Alanine” value (PA 5 mM, day 12 post-induction) of the same compound?
The value was 0.0 ± 0.0 mmol/g-DNA/2 days.

What about the “Flux RXN 54 Plasma exchange: Aspartate” value (PA 5 mM, day 12 post-induction) of the same compound?
Its value is 2.3 ± 0.1 mmol/g-DNA/2 days.

What about the “Flux RXN 55 Plasma exchange: Cysteine” value (PA 5 mM, day 12 post-induction) of the same compound?
Its value is 0.0 ± 0.0 mmol/g-DNA/2 days.

And the “Flux RXN 56 Plasma exchange: Glutamate” value (PA 5 mM, day 12 post-induction)?
Its value is 2.6 ± 0.2 mmol/g-DNA/2 days.

What about the “Flux RXN 57 Plasma exchange: Glycine” value (PA 5 mM, day 12 post-induction) of the same compound?
Its value is 5.9 ± 0.2 mmol/g-DNA/2 days.

And the “Flux RXN 58 Plasma exchange: Serine” value (PA 5 mM, day 12 post-induction)?
The value was 5.8 ± 0.2 mmol/g-DNA/2 days.

What about the “Flux RXN 59 Plasma exchange: Tyrosine” value (PA 5 mM, day 12 post-induction) of the same compound?
The value was 0.1 ± 0.1 mmol/g-DNA/2 days.

And the “Flux RXN 60 Plasma exchange: O2 (calculated oxygen uptake rate)” value (PA 5 mM, day 12 post-induction)?
Its value is 400.5 ± 134.0 mmol/g-DNA/2 days.

And the “Flux RXN 61 Plasma exchange: CO2” value (PA 5 mM, day 12 post-induction)?
The value was 805.5 ± 145.9 mmol/g-DNA/2 days.

What about the “Flux RXN 62 Plasma exchange: NH4+” value (PA 5 mM, day 12 post-induction) of the same compound?
Its value is 17.0 ± 1.0 mmol/g-DNA/2 days.

What about the “Flux RXN 63 Mitochondrial exchange: Pyruvate” value (PA 5 mM, day 12 post-induction) of the same compound?
Its value is 454.0 ± 54.4 mmol/g-DNA/2 days.

And the “Flux RXN 64 Mitochondrial exchange: Malate in, Citrate out” value (PA 5 mM, day 12 post-induction)?
The value was 111.7 ± 15.8 mmol/g-DNA/2 days.
